What was measured:
Assay type in all cases: ADME, organism-based
[1] = AUC(infinity) in BALB/c mouse at 5 mg/kg, po; parameters: time infinity, dose 5 mg/kg, route oral; conditions: plasma
[2] = Volume of distribution at steady state in BALB/c mouse at 1 mg/kg, iv; parameters: dose 1 mg/kg, route intravenous; conditions: in vivo, read-out: Vdss
[3] = Cmax in BALB/c mouse at 5 mg/kg, po; parameters: dose 5 mg/kg, route oral; conditions: in vivo
[4] = Cmax in BALB/c mouse at 1 mg/kg, iv; parameters: dose 1 mg/kg, route intravenous; conditions: in vivo
[5] = Oral bioavailability in BALB/c mouse at 5 mg/kg; conditions: in vivo
[6] = Tmax in BALB/c mouse at 1 mg/kg, iv; parameters: dose 1 mg/kg, route intravenous; conditions: in vivo
[7] = Tmax in BALB/c mouse at 5 mg/kg, po; parameters: dose 5 mg/kg, route oral; conditions: in vivo
[8] = AUC(infinity) in BALB/c mouse at 1 mg/kg, iv; parameters: time infinity, dose 1 mg/kg, route intravenous; conditions: plasma

For `O=C(NCc1cccnc1)Nc1ccc(S(=O)(=O)N2CC3CCC(C2)O3)cc1`, the AUC(0-inf) [1] was 1.4 µM·h, the Vd [2] was 1.1 L/kg and the Cmax [3] was 1100 nM. The Cmax [4] was 2700 nM, the bioavailability [5] was 26% and the Tmax [6] was 4.8 min. For the same compound, the Tmax [7] was 30 min and the AUC(0-inf) [8] was 0.92 µM·h.

From ChEMBL document CHEMBL2390838, “Structure-based identification of ureas as novel nicotinamide phosphoribosyltransferase (Nampt) inhibitors” (J Med Chem, 2013)
